pIC50: −log10 of the molar value. Counter-ions that a name gives are not always drawn. Like-named read-outs stand apart in the source and are kept apart here.
Molecular target: T1, Angiotensin II Receptor (Bos taurus, UniProt P25104)
T1 construct: fresh adrenal glands received on crushed ice are cleaned of fatty tissues; from tissue; host or cells: beef adrenal cortex, microsomal membranes (100,000×g pellet)
T1 sequence (P25104 1-359): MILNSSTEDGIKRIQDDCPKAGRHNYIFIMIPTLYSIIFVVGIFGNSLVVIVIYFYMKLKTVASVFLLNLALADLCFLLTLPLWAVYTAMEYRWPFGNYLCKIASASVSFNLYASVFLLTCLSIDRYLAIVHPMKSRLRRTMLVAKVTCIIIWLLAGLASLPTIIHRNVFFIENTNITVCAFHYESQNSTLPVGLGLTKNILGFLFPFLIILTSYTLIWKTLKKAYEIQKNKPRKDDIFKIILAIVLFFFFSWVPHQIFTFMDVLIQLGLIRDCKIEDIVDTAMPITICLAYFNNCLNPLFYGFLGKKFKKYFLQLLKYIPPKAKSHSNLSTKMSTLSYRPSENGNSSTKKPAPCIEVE
Assay: Receptor Binding Assay: displacement of [^125 I](Sar^1,Ile^8)AngII
Assay type: beef (adrenal cortex microsomal membranes)
Text: Beef adrenals are obtained from a local slaughter house (Maxwell-Cohen). [^125 […]. 2200 Ci/mmole, is purchased from Dupont (NEN®, Boston, Mass.). All unlabeled AngII analogs, Dimethylsulfoxide (DMSO), nucleotides, bovine serum albumin (BSA) are purchased from Sigma Chemical Co., St. Louis, Mo. U.S.A. […] Approximately sixteen (16) to twenty (20) beef adrenal glands are processed as follows: fresh adrenal glands received on crushed ice are cleaned of fatty tissues and the tough membranes encapsulating the glands are removed and discarded. The brownish tissue forming the adrenal cortex is scraped off and finely minced with scissors before homogenization. Care is taken to avoid contamination with medullary tissue during dissection. The scraped cortices are suspended in twenty volumes of an ice-cold buffer medium consisting of 10 mM Tris.HCl (pH 7.4 at 22° C.) and containing 1.0 mM EDTA and 0.2M sucrose. Unless otherwise indicated, all subsequent operations are done at 4° C. […] The homogenate is centrifuged first at low speed (3,000×g) for 10 min. […] This P2 pellet is discarded and the liquid phase is carefully decanted off in clean centrifuge tubes and recentrifuged at high speed (100,000×g) for 60 min. The translucent final pellet is harvested and combined in a small volume (20-50.0 ml) of 50.0 mM Tris.HCl buffer, pH 7.2. A 100 ul aliquot is withdrawn and the protein content of the preparation is determined by the Lowry's method (Lowry, O. H., Rosebrough, […]. and Randall, R. J., Protein measurement with Folin phenol reagent. J. Biol. Chem., 48, 265-275, 1951). The pelleted membrane is reconstituted in 50.0 mM Tris.HCl buffer containing 0.1 mM of phenylmethylsulfonyl fluoride (PMSF) to give approximately a protein concentration of 2.5 mg per ml of tissue suspension. […] In competition studies, experimental compounds are diluted in dimethylsulfoxide (DMSO) and added in 20 ul to wells before the introduction of tissue membranes. […] Assays are performed in triplicate. The wells are left undisturbed for 60 min. at room temperature. Following incubation, all wells are harvested at once with a Brandel® Harvester especially designed for a 96 well plate (Brandel® Biomedical Research & Development Labs. Inc., Gaithersburg, Md., U.S.A.). The filter discs are washed with 10×1.0 ml of cold 0.9% NaCl to remove unbound ligand. […] This method is routinely used. The filters are removed from the filter grid and counted in a Parkard® Cobra Gamma Counter for 1 min. (Packard Instrument Co., Downers Grove, Ill., U.S.A.). The binding data are analyzed by the non-linear interactive "LUNDON-1" program (LUNDON SOFTWARE Inc., Cleveland, Ohio U.S.A.).

[1] = read-out: Angiotensin II Receptor Binding IC50
[2] = continuation of Table I headed BIOLOGICAL DATA, read-out: Biological Data

| SMILES | pIC50 [1] | pIC50 [2] |
| --- | --- | --- |
| CCCCc1nc2ccc(C3(C)CC4c5ccccc5CCN4O3)cc2c(=O)n1Cc1ccc(-c2ccccc2-c2nnn[nH]2)cc1 (stereo not drawn) [Example 64, Cis and Trans-2-Butyl-6-(1,5,6,10b-tetrahydro-2-methyl-2H-isoxazolo[3,2-a]isoquinolin-2-yl)-3-[[2'-(1H-tetrazol-5-yl][1,1'-biphenyl]-4-yl]methyl]-4(3H)-quinazolinone] | 7.03 |  |
| CCCCc1nc2ccc([C@@H]3C[C@H]4c5ccccc5CCN4O3)cc2c(=O)n1Cc1ccc(-c2ccccc2-c2nnn[nH]2)cc1 (relative stereo) [Example 63, Cis-2-Butyl-6-(1,5,6,10b-tetrahydro-2H-isoxazolo[3,2-a]isoquinolin-2-yl)-3-[[2'-(1H-tetrazol5-yl)[1,1'-biphenyl]-4-yl]methyl]-4(3H)-quinazolinone] | 7.27 |  |
| CCCCc1nc2ccc([C@@]3(CC)C[C@@H]4CCCN4O3)cc2c(=O)n1Cc1ccc(-c2ccccc2-c2nnn[nH]2)cc1 (relative stereo) [Example 71, Cis-2-butyl-6-(2-ethylhexahydropyrrolo[1,2b]isoxazol-2-yl)-3-[[2'-[1-(1H-tetrazol-5-yl)][1,1'-biphenyl]-4-yl]methyl]-4(3H)-quinazolinone] | 7.20 |  |

Continued, values first:

| pIC50 [1] | pIC50 [2] | SMILES |
| --- | --- | --- |
|  | 7.51 | CCCCc1nc2ccc([C@@]3(C)C[C@@H]4CCCN4O3)cc2c(=O)n1Cc1ccc(-c2ccccc2-c2nnn[nH]2)cc1 (relative stereo) [Example 73, Cis-2-Butyl-6-(hexahydro-2-methylpyrrolo[1,2-b]isoxazol-2-yl)-3-[[2'-(1H-(tetrazol-5-yl)[1,1'-biphenyl-4-yl]methyl]-4(3H)-quinazolinone sodium salt] |
|  | 6.84 | CCCCc1nc2ccc(C3(C(=O)OC)CC4CCCN4O3)cc2c(=O)n1Cc1ccc(-c2ccccc2-c2nnn[nH]2)cc1 (mixture of isomers) [Example 78, Trans(+/-)-Methyl-2-[2-butyl-3,4-dihydro-4-oxo-3-[[2'-(1H-tetrazol-5-yl)[1,1'-biphenyl]-4-yl]methyl-6-quinazolinyl]hexahydropyrrolo[1,2-b]isoxazole-2-carboxylate] |
